# Experimental data: patent US5635193A, “Stability of azadirachtin-containing solid” (Thermo Trilogy Corporation, priority 1995, dated 1997)
# Columns and labels:
# [1] = Storage stability at 55° C. of dried lot 14 solid with added water or ethanol (Example 3, Table 3); type: physicochemical; details: 55° C. for a short period such as 24 hours
# Excerpt: Three values are given in the tables for each azadirachtin level: The amount (in grams) of azadirachtin A is given before the slash. The amount of azadirachtin B (in grams) is given after the slash. The total azadirachtin amount is given in parentheses. Ka, Kb, and Kt refer to the first order decomposition rate constants (with units of 1/day) for azadirachtin A, azadirachtin B, and total azadirachtin, respectively.
# Dry solid azadirachtin was obtained by drying a solid azadirachtin sample from Lot 14 (014) in an oven at 55° C. for 24 hours in an unsealed vessel until the volatile content of the solid was less than 0.5%. The dried sample was then split into 6 subsamples. One dry subsample (014D) was used without further treatment. A second subsample (014W1) received 1% by weight of H2 O. A third subsample (014W4) received 4% by weight H2 O. Subsamples 4, 5 and 6 received 1, 3, and 5% by weight of ethanol, respectively and were designated 014E1, 014E3, and 014E5. The subsamples were placed in multiple tightly sealed vials at 55° C. Individual vials were removed periodically to assay for azadirachtin.
# [2] = tested on: various insect, mite, nematode, etc. orders; details: cited from earlier work
smiles,measurement,setting,value
C/C=C(\C)C(=O)O[C@H]1C[C@@H](OC(C)=O)[C@@]2(C(=O)OC)CO[C@H]3[C@@H](O)[C@@](C)([C@]45O[C@@]4(C)[C@H]4C[C@@H]5O[C@@H]5OC=C[C@@]54O)[C@H]4[C@]1(CO[C@]4(O)C(=O)OC)[C@@H]32 [azadirachtin],effect of heating upon azadirachtin stability,[1],little or no effect upon azadirachtin stability
same,biological activity (in words),[2],feeding inhibition and growth disruption
